Reference: US20240181001A1, “TREATMENT” (Queen Mary University London, priority 2021, published 2024)
Entries after “also recorded” stand apart in the source; their conditions may differ.

What was measured:
KP tumors = type: in vivo, mouse
Method: Kras^LSL-G12D/+; Trp53^flox/flox (referred to as KP) were used to generate lung adenocarcinomas by administering Ad-Cre (Cre recombinase Adenovirus) 5×10^7 PFU as previously described (DuPage et al, 2009; Cortez-Retamozo et al, 2013; Pfirsche et al, 2016).
CTLA-4 mAb (clone—9D9) (Bio X Cell) 100 μg/mouse was administered twice a week over 3 weeks. Rat IgG2a isotype control, anti-trinitrophenol (Clone 2A3) (Bio X Cell) 100 μg/mouse was administered twice a week during 3 weeks.
For VEGFR2 inactivation, KP mice were administered with anti-VEGFR2 (clone DC101, Bio X Cell) twice per week during three weeks.
In order to deplete CD8+ cells, KP mice were administered with anti-CD8α mAb intraperitoneally (clone YTS 169.4, BioXcell) twice per week after the first day of treatment and until the end of the experiments.
In order to deplete IFN-γ, KP mice were administered with anti-IFN-γ mAb intraperitoneally (XMG1.2, Bio X Cell) twice per week after the first day of treatment and until the end of the experiments. To deplete CXCL9, KP mice were administered with anti-CXCL9 mAb intraperitoneally (MIG-2F5.5, Bio X Cell) twice per week after the first day of treatment and until the end of the experiments. […]

[1] = system: human lung adenocarcinoma (A549) cells; experiment: Cell survival assay (MTS), A549 cells; type: cell-based; conditions: increasing concentrations of cisplatin alone or with 2nM 29P
Method: A549 and LLC cells were purchased from ATCC. Mouse Lung Endothelial cells (EC) were obtained and cultured as previously described (34).
(§1) A549 or KP cell survival was analyzed using the CellTiter96® Aqueous One Solution Reagent (Promega #G3582) according to the manufacturer's instructions. Briefly, 1000 cells were seeded into 96-well plated. Cells were treated the following day and the solution reagent was added after 72 hours of treatment. Plates were read using a wavelength of 490 nm.

KP lung tumor cells = experiment: Cell survival assay (MTS), KP cells; type: cell-based, mouse; conditions: increasing concentrations of cisplatin alone or with 2nM 29P
Method: The lung adenocarcinoma cell line KP53 F1 was derived from lung tumors of C57BL/6 KP mice and was kindly provided by Dr. S A. Quezada, UCL Cancer Centre (University College London, UK).
as §1

[2] = Side effects in C57/BL6 mice: body weight, lymphocytes, creatinine; type: in vivo, mouse; conditions: Cis^3/anti-PD-1/anti-CTLA-4 and 29P, compared with Cis^6/anti-PD-1/anti-CTLA-4, placebo or single agent 29P
Method: FIG. 3 illustrates that 29P treatment sensitizes KP tumors to current immunotherapies and chemotherapies. […] (A, B, E) Representative images of hematoxylin-eosin stained lungs and quantification of number of tumor foci and tumor burden. […] (D) C57/BL6 mice were treated with Placebo, 29P, Cis^6/α-PD-1+α-CTLA-4 and Cis^3/α-PD-1+α-CTLA-4/29P. […] (F) Representative images of hematoxylin-eosin stained lungs (left) and quantification of mouse body weights and tumor burden (right). N.S. Not significant/p>0.05, *p<0.05, **p<0.01, ***p<0.001. (A,B,D-F) ordinary One-way ANOVA with Tukey's multiple comparison test, for not normally distributed data Kruskal-Wallis test with Dunn's multiple comparison test, (C) Mantel-Cox test, n=5-8 per treatment. Scale bars: 5 mm in H&E staining.

KP tumor burdened lung = experiment: Flow cytometry of lungs bearing KP tumors; type: in vivo, mouse; conditions: cisplatin treatment
Method: Tumors were minced and incubated at 37° C. for 20 min in an enzymatic cocktail containing DNase (0.5 mg/ml, Sigma). Liberase (2 mg/ml, Sigma) in HBSS (Sigma) was used to make a single cell suspension for pancreatic tumors. For breast tumors, collagenase/dispase (1 mg/ml, Sigma) in PBS, was used to make a single cell suspension. Cells were passed through a […] filter (BD Biosciences), washed in PBS supplemented with 2% foetal bovine serum and 2 mM EDTA, counted and used immediately for flow cytometry. Before cells were stained with specific antibodies, nonspecific binding sites were blocked with Fcγ R III/II TruStain fcX (93, Biolegend). Staining was performed in PBS supplemented with 2% foetal bovine serum and 2 mM EDTA. The following fluorochrome-conjugated antibodies were used: anti-CD45 (30-F11), anti-CD3 (145-2C11), anti-CD4 (L3T4), anti-CD8 (53-6.7), anti-CD69 (H1.2F3), anti-CD44 (IM7), anti-CD62L (MEL-14), anti-CD19 (6D5), anti-CD11b (M1/70), anti-F4/80 (BM8) from Biolegend; anti-PD1 (RMP1-30), anti-Gr1 (RB6-8C5) and anti-Ly6C (HK1.4) from eBioscience. Fixable viability dye (FVD) (eBioscience) was used to discriminate between live and dead cells. Acquisition and analyses were performed on a BD LSRII system using BD […] software (BD Biosciences). The percentage of cells were analysed using FlowJo software (version 10.0.8 tree Star). Dead cells were excluded from the analysis on the basis of FVD and SSC gating. Cell doublets were excluded from the analysis by gating for FSC area versus FSC width. CD45+ cells were used to include leukocytes only in the data analysis.

CCCCCCOC(=O)N=C(NCCC[C@@H]1NC(=O)[C@@H](C(C)C)N(C)C(=O)[C@H](C)N(C)C(=O)[C@H](C)NC(=O)[C@H](CC(=O)OC)NC(=O)CNC1=O)NC(=O)OCCCCCC [29P, c(*vR(Hoc)2GD(OMe)A*A)]
weight loss side effect (KP tumors; mouse, in vivo): without apparent adverse weight loss side effects
cisplatin cytotoxicity with 29P addition (MTS cell viability) [1]: independent of 29P addition
cisplatin cytotoxicity with 29P addition (MTS cell viability) (KP lung tumor cells): independent of 29P addition
body weight [2]: restored; also recorded: significantly improved parameters
creatinine levels [2]: restored; also recorded: significantly improved parameters
lymphocyte numbers [2]: restored; also recorded: significantly improved parameters

N.N.[Cl][Pt][Cl] [cisplatin]
T cell (CD4+ and CD8+) numbers (KP tumor burdened lung): increased
myeloid cell (Gr1+, Natural killer cells, dendritic cells, monocytes) numbers (KP tumor burdened lung): increased
tumor associated macrophages (KP tumor burdened lung): a reduction
anti-tumor effect (KP tumors; KP mice, Cis^6 (cisplatin 6 mg/kg) alone): clear anti-tumor effect
